In patent publication US12173212B2, “Design, synthesis, and photophysical properties of a novel NIR II dye for biological imaging and optoelectronic devices” (University of Mississippi, priority 2020, dated 2024):

How the values were obtained:
[1] = Absorption spectra (Cary 5000 UV-Vis-NIR spectrophotometer, 1 cm quartz cell); assay type: physicochemical; conditions: ring closed lactone form, FIG. 2
Description: (§1) All chemicals and solvents were purchased from commercial suppliers and used without further purification unless other-wise specified. ^1H NMR (500 MHz) and ^13C NMR ([…]) spectra were recorded in deuterated solvents on a Bruker ADVANCE 500 NMR Spectrometer. J values are expressed in Hz and quoted chemical shifts are in ppm downfield from tetramethylsilane (TMS) reference using the residual protonated solvents as an internal standard. The signals have been designated as follows: s (singlet), d (doublet), t (triplet), m (multiplets). High resolution mass spectra (HRMS) were deter-mined on Bruker-micrOTOF-Q II Mass Spectrometer. Absorption spectra were acquired using a Cary 5000 UV-Vis-NIR spectrophotometer in a 1 cm quartz cell. Fluorescence spectra were acquired using a Horiba QuantaMaster 8075-21 spectrofluorometer with xenon lamp excitation and liquid nitrogen cooled indium gallium arsenide solid state detector. […] The relative quantum yield of the rhodindolizine dye was calculated using a known technique. […] The absorbance point for the quantum yield was chosen because of similar overlap in the absorption spectra between the standard and the rhodindolizine dye. […]
(§2) Additionally, a range of solvent polarities were evaluated to access the polarity of RhIndz in the ground-state via absorption spectroscopy and in the excited-state via fluorescence spectroscopy (Table 6).

[2] = Fluorescence spectra (Horiba QuantaMaster 8075-21 spectrofluorometer, InGaAs detector); assay type: physicochemical; conditions: closed spirolactone structure
Description: as §1, §2

absorption maximum [1]: 375 nm | fluorescence of closed spirocyclic form [2]: non-fluorescent
Structure (SMILES): Cc1c(-c2ccccc2)c(-c2ccc3c(c2)Oc2cc(-c4c(-c5ccccc5)c(C)c5ccccn45)ccc2C32OC(=O)c3ccccc32)n2ccccc12 [RhIndz, 3′,6′-bis(1-methyl-2-phenylindolizin-3-yl)-3H-spiro[2-benzofuran-1,9′-xanthen]-3-one]
